This note sets out measurements from patent US20240116918A1, “SUBSTITUTED TRICYCLIC COMPOUND AS PRMT5 INHIBITOR AND USE THEREOF” (NANJING SANHOME PHARMACEUTICAL CO., LTD., priority 2019, published 2024).

As a reminder, the IC50 is the concentration that inhibits the measured activity by half. Read a low IC50 as higher potency.

The assay has as its system NCI-H358 cells. As to the kind of experiment: In vitro cell activity, NCI-H358 cells, CCK-8. The class given is cell-based. The settings on record: NCI-H358, 168 h, human non-small cell lung cancer cells, 7 days. The protocol: Test compounds: the compounds of the present invention prepared in the above example. Each compound was formulated into a 10 mM stock solution with DMSO, and finally diluted into 8 concentrations for detection, with the final concentrations being 33333.00 nM, 6666.60 nM, 1333.32 nM, 266.66 nM, 53.33 nM, 10.67 nM, 2.13 nM, and 0.43 nM for experiments in Z-138 cells.
2.1.3 NCI-H358 cell thawing: The cryovial for NCI-H358 cells was taken out from a liquid nitrogen tank and placed in a 37° C. water bath, and shaken gently for thawing as soon as possible. After thawing, the cryovial was taken out, and sterilized with an alcohol cotton ball, after which the cap was unscrewed. The cell fluid was drawn and injected into a centrifuge tube. 1 mL of 1640 medium containing 10% FBS was added, and mixed uniformly. The tube was placed in a centrifuge, and centrifuged at 1000 rpm for 5 min. Afterwards, the supernatant was discarded, and complete medium was added. The mixture was pipetted repeatedly until the cells were completely dispersed and resuspended. The mixture was inoculated in a petri dish at an appropriate concentration, and cultured in a CO2 incubator at 37° C., 5% CO2, and 95% humidified air.
2.2.3 NCI-H358 cell culture and passage: The cells grew to about 80-90%. The medium (1640 medium+10% FBS+1% penicillin-streptomycin+1 mM sodium pyruvate) was transferred to a 15 mL centrifuge tube, and centrifuged at 1000 rpm for 5 min. The supernatant was removed. The cells were resuspended in complete medium, and inoculated in a petri dish at the desired density. The dish was placed in a CO2 incubator at 37° C., 5% CO2, and 95% humid air. The culture medium was changed every 2-3 days or the passage was carried out, depending on the cell growth.
After passage, NCI-H358 cells were resuspended in complete medium at the corresponding density, 1000 cells/well, and inoculated in a 96-well culture plate. The wells at the outer circumference were filled with 200 μL PBS to prevent the culture conditions of the inside plate wells from being too different from each other due to the faster evaporation of medium at the edge. The leftmost column of the 60 inner wells were blank wells, which were not added with cells, but filled with equal volume of PBS. The remaining 54 wells were subjected to cell plating with a multichannel pipette, to each well was added 100 μL. […]
The first column of PBS was used as a blank control well, and 100 μL of CCK-8 was added synchronously thereto. […] The optimal detection time was determined according to the shade of color developed by CCK-8 (the optimal OD value for the DMSO group was about 1.0). […] The microplate reader software was opened, the detection parameters were adjusted, and the absorbance at 450 nm (OD value) was detected. […]
Regarding `CC(=O)N1CCC(Nc2cc3c(cn2)C2(CC2)CN(C[C@H](O)CN2CCc4ccccc4C2)C3=O)CC1` [Example 1, (R)-7′-((1-acetylpiperidin-4-yl)amino)-2′-(3-(3,4-dihydroisoquinolin-2(1H)-yl)-2-hydroxypropyl)-2′,3′-dihydro-1′H-spiro[cyclopropane-1,4′-[2,6]naphthyridin]-1′-one], the half-inhibitory concentration (IC50) is 8.9 nM.
In turn, `CC(=O)N1CCC(Nc2cc(C(=O)NC[C@H](O)CN3CCc4ccccc4C3)ncn2)CC1` [Compound A, (S)-6-((1-Acetylpiperidin-4-yl)amino)-N-(3-(3,4-dihydroisoquinolin-2(1H)-yl)-2-hydroxypropyl)pyrimidine-4-carboxamide] came in with an IC50 of 73.2 nM.
To `CC(=O)N1CC2(CC(Nc3cc4c(cn3)C3(CC3)CN(C[C@H](O)CN3CCc5ccccc5C3)C4=O)C2)C1` [Example 2, (R)-7′-((2-acetyl-2-azaspiro[3.3]hept-6-yl)amino)-2′-(3-(3,4-dihydroisoquinolin-2(1H)-yl)-2-hydroxypropyl)-2′,3′-dihydro-1′H-spiro[cyclopropane-1,4′-[2,6]naphthyridin]-1-one] belongs 5.02 nM; to `CC(=O)N1CCC(Nc2ccc3c(c2)C(=O)N(C[C@H](O)CN2CCc4ccccc4C2)CC32CC2)CC1` [Compound B, (R)-7′-((1-Acetylpiperidin-4-yl)amino)-2′-(3-(3,4-dihydroisoquinolin-2(1H)-yl)-2-hydroxypropyl)-2′,3′-dihydro-1′H-spiro[cyclopropane-1,4′-isoquinolin]-1′-one, reference compound], 15.3 nM.
